Source: ChEMBL document CHEMBL5537165, “Hepatitis C: The Story of a Long Journey through First, Second, and Third Generation NS3/4A Peptidomimetic Inhibitors. What Did We Learn?” (J Med Chem, 2024)
“And” between values parts separate entries of the source, which are not always exact repeats. Equal entries are not always repeated.

Tests used:
[1] = target: Replicase polyprotein 1ab (Severe acute respiratory syndrome coronavirus 2, UniProt P0DTD1); test: Inhibition of SARS-CoV-2 3CL protease by FRET assay
SARS-CoV-2 [2] = test: Antiviral activity against SARS-CoV-2 infected in African green monkey Vero E6 cells assessed as reduction in viral replication measured after 48 hrs by Hoechst 33342 staining based analysis; type: functional, organism-based; details: Severe acute respiratory syndrome coronavirus 2, Vero C1008, 48 h
[3] = target: T1, Non-structural protein 4b (Hepacivirus hominis, UniProt F5B4I0); test: Inhibition of Hepatitis C virus genotype 4a NS4B
T1 sequence (F5B4I0 whole entry): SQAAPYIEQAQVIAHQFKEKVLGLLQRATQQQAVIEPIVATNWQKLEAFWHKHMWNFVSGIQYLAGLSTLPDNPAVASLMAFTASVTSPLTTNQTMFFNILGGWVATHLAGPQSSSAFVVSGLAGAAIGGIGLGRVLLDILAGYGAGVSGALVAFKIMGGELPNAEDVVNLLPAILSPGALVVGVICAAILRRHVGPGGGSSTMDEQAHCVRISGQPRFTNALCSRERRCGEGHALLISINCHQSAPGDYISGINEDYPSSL

[4] = target: T1, Non-structural protein 4b; test: Inhibition of Hepatitis C virus genotype 5a NS4B
[5] = target: T1, Non-structural protein 4b; test: Binding affinity to Hepatitis C virus genotype 3a NS4B assessed as inhibition constant
[6] = target: T1, Non-structural protein 4b; test: Binding affinity to Hepatitis C virus genotype 4a NS4B assessed as inhibition constant
[7] = AUC in Sprague-Dawley rat at 2 mg/kg, po; type: ADME, organism-based; details: in vivo
[8] = target: T1, Non-structural protein 4b; test: Inhibition of Hepatitis C virus genotype 6a NS4B
[9] = Half life in Beagle dog at 5 mg/kg, po by LC-MS/MS analysis; type: ADME, organism-based, Canis lupus familiaris; details: in vivo
[10] = target: T1, Non-structural protein 4b; test: Inhibition of Hepatitis C virus genotype 2b NS4B
[11] = target: T1, Non-structural protein 4b; test: Inhibition of Hepatitis C virus genotype 1a NS4B
[12] = target: T1, Non-structural protein 4b; test: Inhibition of Hepatitis C virus genotype 3a NS4B
[13] = target: Hepatitis C virus NS5B RNA-dependent RNA polymerase (Hepatitis C virus, UniProt Q8JXU8); test: Binding affinity to Hepatitis C virus genotype 2a NS5B polymerase assessed as inhibition constant
Hepatitis C virus NS5B RNA-dependent RNA polymerase, sequence (Q8JXU8 whole entry): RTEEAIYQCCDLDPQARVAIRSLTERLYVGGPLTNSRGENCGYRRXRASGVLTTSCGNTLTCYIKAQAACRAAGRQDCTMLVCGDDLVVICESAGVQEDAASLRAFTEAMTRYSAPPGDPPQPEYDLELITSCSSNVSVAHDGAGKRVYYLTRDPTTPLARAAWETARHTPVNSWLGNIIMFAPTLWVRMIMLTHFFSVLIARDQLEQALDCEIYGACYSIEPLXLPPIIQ

Hepatitis C virus [14] = test: Antiviral activity against HCV assessed as inhibition of RNA replication; type: functional, organism-based, Hepacivirus hominis
[15] = Oral bioavailability in Beagle dog at 2 mg/kg; type: ADME, organism-based, Canis lupus familiaris; details: in vivo
[16] = target: T1, Non-structural protein 4b; test: Binding affinity to Hepatitis C virus genotype 1b NS4B assessed as inhibition constant
[17] = Half life in Sprague-Dawley rat at 5 mg/kg, po by LC-MS/MS analysis; type: ADME, organism-based; details: in vivo
[18] = target: T1, Non-structural protein 4b; test: Inhibition of Hepatitis C virus genotype 1b NS4B
[19] = target: T1, Non-structural protein 4b; test: Binding affinity to Hepatitis C virus genotype 1a NS4B assessed as inhibition constant
[20] = target: T1, Non-structural protein 4b; test: Binding affinity to Hepatitis C virus genotype 6a NS4B assessed as inhibition constant
[21] = Oral bioavailability in Sprague-Dawley rat; type: ADME, organism-based; details: in vivo
[22] = target: T1, Non-structural protein 4b; test: Binding affinity to Hepatitis C virus genotype 2b NS4B assessed as inhibition constant
[23] = AUC (0 to infinity) in liver to plasma of Sprague-Dawley rat at 3 mg/kg,po; type: ADME, organism-based; details: in vivo
[24] = Half life in Cynomolgus monkey at 1.0 mg/kg,iv or 1.25 mg/kg, po; type: ADME, organism-based, Macaca fascicularis; details: in vivo
[25] = Half life in human liver microsomes at 1 uM by LC-MS/MS analysis; type: ADME, Microsome
[26] = AUC in Sprague-Dawley rat plasma […] at 10 mg/kg, po administered via gavage by LC-MS/MS analysis; type: ADME, organism-based; details: in vivo
RNA = test: Inhibition of Hepatitis C virus RNA; type: nucleic-acid assay, Hepacivirus hominis
[27] = AUC in Beagle dog at 5 mg/kg, po measured upto 24 hrs by LC/MS-MS analysis; type: ADME, organism-based, Canis lupus familiaris; details: in vivo
[28] = Cmax in Sprague-Dawley rat at 3 mg/kg, po and measured upto 24 hrs by LC-MS/MS analysis; type: ADME, organism-based; details: in vivo
[29] = Oral bioavailability in Sprague-Dawley rat at 3 mg/kg by LC-MS/MS analysis; type: ADME, organism-based; details: in vivo
[30] = Clearance in Sprague-Dawley rat at 0.5 mg/kg, iv by LC-MS/MS analysis; type: ADME, organism-based; details: in vivo
[31] = AUC in Sprague-Dawley rat at 5 mg/kg, po measured upto 24 hrs by LC/MS/MS analysis; type: ADME, organism-based; details: in vivo
[32] = Volume of distribution at steady state in Sprague-Dawley rat at 3 mg/kg, iv measured up to 24 hrs by LC-MS/MS analysis; type: ADME, organism-based; details: in vivo, read-out: Vdss
Hepatitis C virus [33] = test: Antiviral activity against Hepatitis C virus genotype 1a infected in human Huh-7 cells assessed as reduction in viral infection; type: functional, organism-based, Hepacivirus hominis
Hepatitis C virus [34] = test: Antiviral activity against Hepatitis C virus genotype 1b infected in human Huh-7 cells assessed as reduction in viral infection; type: functional, organism-based, Hepacivirus hominis
[35] = Volume of distribution at steady state in Beagle dog at 0.5 mg/kg, iv and measured upto 24 hrs by LC-MS/MS analysis; type: ADME, organism-based, Canis lupus familiaris; details: in vivo, read-out: Vdss
[36] = Volume of distribution at steady state in Sprague-Dawley rat at 1 mg/kg, iv; type: ADME, organism-based; details: in vivo, read-out: Vdss
[37] = Cmax in Beagle dog at 3 mg/kg, po and measured upto 24 hrs by LC-MS/MS analysis; type: ADME, organism-based, Canis lupus familiaris; details: in vivo
[38] = Clearance in Sprague-Dawley rat at 2 mg/kg, iv by LC-MS/MS analysis; type: ADME, organism-based; details: in vivo
[39] = Clearance in Beagle dog plasma at 0.5 mg/kg, iv and measured upto 24 hrs by LC-MS/MS analysis; type: ADME, organism-based, Canis lupus familiaris
[40] = target: T1, Non-structural protein 4b; test: Inhibition of Hepatitis C virus genotype 3a NS4B expressed in Escherichia coli
SARS-CoV-2 [41] = test: Antiviral activity against SARS-CoV-2 infected in African green monkey Vero cells assessed as reduction in viral replication measured after 72 hrs by qRT-PCR analysis; type: functional, organism-based; details: Severe acute respiratory syndrome coronavirus 2, Vero
[42] = AUC in Beagle dog at 2 mg/kg, po; type: ADME, organism-based, Canis lupus familiaris; details: in vivo
Hepatitis C virus [43] = test: Antiviral activity against Hepatitis C virus infected in human Huh7.5 cells pretreated […] for 2 hrs followed by viral infection for 1 hrs by plaque assay; type: functional, organism-based, Hepacivirus hominis
[44] = Clearance in Beagle dog at 2 mg/kg, iv by LC-MS/MS analysis; type: ADME, organism-based, Canis lupus familiaris; details: in vivo

C=C[C@@H]1C[C@]1(NC(=O)[C@@H]1C[C@@H](Oc2cc(-c3csc(C(=O)CC)n3)nc3c(C)c(OC)ccc23)CN1C(=O)[C@@H](NC(=O)OC1CCCC1)C(C)(C)C)C(=O)O
IC50 [1]: 10 nM | EC50 (SARS-CoV-2 [2]): 12 nM

CC(C)(C)[C@@H]1NC(=O)O[C@@H]2CCC[C@H]2OC/C=C/C(F)(F)c2nc3ccccc3nc2O[C@@H]2C[C@@H](C(=O)N[C@]3(C(=O)NS(=O)(=O)C4(C)CC4)C[C@H]3C(F)F)N(C2)C1=O
IC50 [3]: 6.1 nM | IC50 [4]: 8.1 nM | Ki [5]: 0.96 nM | Ki [6]: 0.92 nM and 0.092 nM | AUC [7]: 22 µM·h | IC50 [8]: 11.3 nM | half-life [9]: 0.6 h | IC50 [10]: 3.8 nM | IC50 [11]: 4.4 nM | IC50 [12]: 7900 nM | Ki [13]: 0.053 nM | EC50 (Hepatitis C virus [14]): 0.24 nM | bioavailability [15]: 95% | Ki [16]: 0.063 nM | half-life [17]: 2.8 h | IC50 [18]: 8.9 nM | Ki [19]: 0.075 nM | Ki [20]: 0.11 nM | bioavailability [21]: 90%

CC(C)(C)NC(=O)N[C@H](C(=O)N1C[C@H]2[C@@H]([C@H]1C(=O)NC(CC1CCC1)C(=O)C(N)=O)C2(C)C)C(C)(C)C (some centres not stated) [BOCEPREVIR]
Ki [5]: 6 nM | Ki [19]: 6 nM | Ki [22]: 6 nM

C=C[C@@H]1C[C@]1(NC(=O)[C@@H]1C[C@@H](Oc2cc(-c3ccccc3)nc3cc(OC)ccc23)CN1C(=O)[C@@H](CC(=O)N1CCCCC1)C(C)(C)C)C(=O)NS(=O)(=O)C1CC1 [SOVAPREVIR]
AUC [23]: > 505 µM·h | half-life [9]: 115 h | IC50 [11]: 11 nM | half-life [24]: 10.4 h | Ki [16]: 0.06 nM | half-life at 1 µM [25]: 1.77 h | half-life [17]: > 90 h | AUC [26]: 339 µM·h

Cc1ccc2nc(-c3ccc4nc(-c5ccc(NC(=O)c6cc(C(F)(F)F)cc(C(F)(F)F)c6)cc5)sc4c3)sc2c1S(=O)(=O)O
IC50 (RNA): 5 nM

C=C[C@@H]1C[C@]1(NC(=O)[C@@H]1C[C@@H](Oc2cc(-c3csc(NC(=O)C(C)C)n3)nc3c(Br)c(OC)ccc23)CN1C(=O)[C@@H](NC(=O)OC1CCCC1)C(C)(C)C)C(=O)O
AUC [27]: 13 µM·h | AUC [23]: 40 µM·h | Cmax [28]: 400 nM | bioavailability [29]: 40% | clearance [30]: 20 mL/min/kg | half-life [17]: 1.2 h | AUC [31]: 1.55 µM·h | Vd [32]: 1.2 L/kg

COc1ccc2c(O[C@@H]3C[C@H]4C(=O)N[C@]5(C(=O)NS(=O)(=O)C6CC6)C[C@H]5/C=C\CCCCC[C@H](CC(=O)N5CCCC(F)(F)C5)C(=O)N4C3)cc(-c3nc(C(C)C)cs3)nc2c1C
EC50 (Hepatitis C virus [33]): 0.04 nM | EC50 (Hepatitis C virus [34]): 0.7 nM

C=C[C@@H]1C[C@]1(NC(=O)[C@@H]1C[C@@H]2CN1C(=O)[C@H](C1CCCC1)NC(=O)O[C@@H]1CCC[C@H]1CCCCCn1c(nc3cc(OC)ccc3c1=O)O2)C(=O)NS(=O)(=O)C1(C)CC1 [MK-2748]
Vd [35]: 0.12 L/kg | Vd [36]: 5 L/kg | AUC [23]: 2420 µM·h | Ki [5]: 1.2 nM | Cmax [37]: 4400 nM | half-life [9]: 2.5 h | IC50 [11]: 0.009 nM | Cmax [28]: 490 nM | clearance [38]: 88 mL/min/kg | bioavailability [15]: 27% | half-life [17]: 1.9 h | AUC [26]: 28.9 µM·h | clearance [39]: 1 mL/min/kg | Ki [19]: 0.009 nM | bioavailability [21]: 40%

CC(C)Oc1ccc(-c2nc(O[C@@H]3C[C@H]4C(=O)N[C@]5(C(=O)NS(=O)(=O)C6(C)CC6)C[C@H]5/C=C\CCCCC[C@H](NC(=O)OC5CCCC5)C(=O)N4C3)c3oc4ccccc4c3n2)cc1
IC50 [3]: 0.6 nM | IC50 [4]: 0.6 nM | EC50 [40]: 1.6 nM | EC50 (SARS-CoV-2 [41]): 1.6 nM | IC50 [8]: 0.6 nM | IC50 [11]: 0.6 nM | IC50 [12]: 600 nM | IC50 [18]: 0.6 nM

C=C[C@@H]1C[C@]1(NC(=O)[C@@H]1C[C@@H](Oc2cc(-c3csc(NC(C)C)n3)nc3c(C(C)C)c(OC)ccc23)CN1C(=O)[C@@H](NC(=O)OC1CCCC1)C(C)(C)C)C(=O)O
IC50 [1]: 14 nM | EC50 (SARS-CoV-2 [2]): 45 nM

COc1cnc(O[C@@H]2C[C@H]3C(=O)N[C@]4(C(=O)NS(=O)(=O)C5CC5)CC4/C=C\CCCCC[C@H](NC(=O)OC(C)(C)C)C(=O)N3C2)c2cc(Cl)ccc12 (some centres not stated)
IC50 [40]: 51 nM

CCC[C@H](NC(=O)[C@@H]1[C@H]2CCC[C@H]2CN1C(=O)[C@@H](NC(=O)[C@@H](NC(=O)c1cnccn1)C1CCCCC1)C(C)(C)C)C(=O)C(=O)NC1CC1
AUC [42]: 40.7 µM·h | EC50 (Hepatitis C virus [43]): 15 nM | clearance [44]: 42 mL/min/kg | AUC [7]: 3.34 µM·h | clearance [38]: 54 mL/min/kg | bioavailability [15]: 40.7% | IC50 [18]: 354 nM | bioavailability [21]: 25%
